{"source": "patent US8053415B2", "about": "“Compounds having RD targeting motifs” (Washington University in St. Louis, priority 2005, dated 2011)", "key": {"A549 and A427 cells": {"tested_on": "A549 and A427 cells", "experiment": "Cellular internalization of cyclic cypate-RGD conjugates (Example 2)", "format": "cell-based", "conditions": "1 μM, 1 h, 37° C.", "procedure": "A549 and A427 cells were purchased from ATCC and grown in […] tissue culture flasks or on Lab-Tek chambered slides in Ham's F12K medium with 2 mM L-glutamine supplemented with 1.5 g/L sodium bicarbonate, 10% fetal calf serum, 100 units/ml penicillin and 100 units/mL streptomycin.\nCells were grown to confluence on LabTek microscope slides. After washing with PBS, the cells were incubated with 1 μM of the target compounds for 1 h at 37° C. The medium was removed and the cells washed with PBS. The slides were mounted with anti-fading mounting medium. Cells were visualized with an Olympus microscope system (FV 1000) using 755 excitation and 845 nm emission filters."}, "A549 cells [1]": {"tested_on": "A549 cells", "experiment": "Cell uptake, internalization and blocking of cypate-peptide conjugates (Example 3)", "format": "cell-based, human", "procedure": "The ABI-positive cells were incubated with cypate or cypate-peptide conjugates at 37° C. for different time points. A549 cells were grown as detailed above. The human glioblastoma cell line, U87, and the human embryonic kidney cell line, HEK, were purchased from ATTC. U87 and HEK cells were maintained in minimum essential medium (MEM) with 2 mM L-glutamine and Earle's BSS adjusted to contain 1.5 g/L sodium bicarbonate, 0.1 mM nonessential amino acids, and 1.0 mM sodium pyruvate, with 10% fetal calf serum, 100 units/mL penicillin, and 100 units/mL streptomycin. Cells were grown on Lab-Tek slides. The medium was replaced and cells were incubated for various times up to 4 h at 37° C. in the presence of 1 μM of the dye conjugated peptides. For fluorescence microscopy, cells were visualized with an Olympus BX61W1 microscope using 775/50 excitation, 845/55 emission. For subcellular localization studies, 25 nM mitotracker green or 50 nM lysotracker red from Molecular Probes (Eugene, Oreg.) was added during the last 15 min or 60 min of incubation, respectively. […] Relative fluorescence was determined for five different areas of each experimental condition using the Slidebook software, and the results were averaged. The average relative fluorescence for each condition was normalized to cells treated with Cyp-GRD peptide."}, "A549 cells [2]": {"tested_on": "A549 cells", "experiment": "CyQuant cytotoxicity and proliferation assay", "format": "cell-based, human", "conditions": "48 hours", "procedure": "Cells were seeded at 2.5×10^4 cells/well and grown in 96 well plates in the presence of 0−1.5×10^−5 M cypate conjugated peptides for 24 or 48 hours. Cell proliferation was measured using the CyQuant proliferation assay from Molecular Probes (Eugene, Oreg.) per the manufacturer's protocol. Briefly, after incubation the microplate was inverted to remove the media and frozen at −70° C. overnight. The microplate was thawed at room temperature and 200 μL of the CyQuant GR dye/cell-lysis buffer was added to each well. […]\nBecause the Cyquant assay is based on the adherence of a dye to nucleic acids, the assay is a measure of both proliferative and cytotoxic effects."}, "[3]": {"experiment": "Absorption and emission spectral properties in 20% aqueous DMSO", "format": "physicochemical", "procedure": "The spectral properties of cypate and the cypate-peptide conjugates were determined in 20% aqueous DMSO, which solubilizes all the compounds. […] Absorbance measurements were performed with a Beckman Coulter DU 640 spectrophotometer. The fluorescence spectra were recorded on Fluorolog-3 fluorometer (HORIBA Jobin Yvon Inc., Edison, N.J.). To prepare the stock solutions, a high precision analytical balance was used to weigh >2 mg of each compound, which was dissolved in DMSO. The DMSO solutions were then diluted with water to obtain a final solution of 20% aqueous DMSO. An aliquot (known volume) of the solution was transferred to a cuvette with 1 μL precision micropipettes and diluted with 20% aqueous DMSO solvent mixture to give a working solution that absorbs at <1.0 absorbance unit. Aliquots of the working solution were diluted with 20% aqueous DMSO and used to determine the molar absorptivity of each compound. For fluorescence measurements, probe solutions with 0.1 absorbance units were used to minimize inner filter effects.\nPrevious studies have shown that this solvent mixture boosts fluorescence intensity and is well tolerated by rodents. Additionally, the dyes and their peptide conjugates are soluble in this solvent mixture, providing a common medium for spectral measurements.\nAbsorbance spectra were measured on a Beckman Coulter DU 640 UV-Visible spectrophotometer. Fluorescence spectra were recorded on a HORIBA Jobin Yvon Fluorolog-3 fluorometer. Stock solutions (1.0 mM) of the conjugates were prepared by dissolving each sample in 80% aqueous DMSO. UV-Vis and fluorescence measurements were carried out by adding 5.0 μL of the stock solutions via a micropipette into 3 mL of 20% aqueous DMSO in a quartz cuvette."}, "[4]": {"target": "T1, purified human αvβ3 integrin protein (Homo sapiens, UniProt P05106+P06756)", "T1 construct": "purchased Chemicon International, Inc. (Temecula, Calif.)", "experiment": "Competitive αvβ3 integrin receptor binding assay with 125I-echistatin tracer (Example 2)", "conditions": "Table 3, read-out: IC50", "procedure": "The binding affinities were measured based on the competitive binding between purified αvβ3 integrin (ABI) and peptide ligands. Echistatin is a polypeptide that binds irreversibly with high affinity and specificity to ABI. ^125I-echistatin was used as a tracer in ABI binding assays.\nReceptor binding assays were performed by using purified human αvβ3 integrin protein from Chemicon International, Inc. (Temecula, Calif.). Assays were carried out using the Millipore Duropore membrane 96-well plates and the Millipore MultiScreen system (Bedford, Mass.). The 96-well membrane plate was blocked with 0.1% Polythylenimine blocking solution overnight at 4° C. ^125I-echistatin (50 nmol/L) was added to the binding buffer (50 mM Tris-HCl, pH 7.4, 100 mM NaCl, 2 mM CaCl2, 1 mM MgCl2, 1 mM MnCl2, 1% BSA) containing integrin protein (50 ng per well in 96-well membrane plate) and ligands in a total volume of 200 μL per well. The concentration range of ligand was between 0.01 μM and 100 μM. The mixtures were incubated for 2 h at room temperature, the ABI was then filtered by centrifugation at 1500 g and washed three times with 0.20 mL of ice-cold binding buffer. The filters containing radioactivity bound ABI were removed using a punch apparatus and counted using a Packard Cobra II Auto-gamma counter (Meriden, Conn.). […] Radiolabeling of ^125I-echistatin (Amersham Biosciences, Piscataway, N.J.) was carried out in a mixture of 0.25% BSA, 5.0% lactose, 0.21% citric acid and aprotinin (0.9 TIU/ml)."}, "A549 tumor": {"tested_on": "A549 tumor", "experiment": "In vivo fluorescence optical imaging and ex vivo organ distribution in A549 tumor-bearing nude mice", "conditions": "for blocking of Cyp-GRD uptake in the tumor by co-injection: equimolar, 0.3 μmol/kg body weight", "procedure": "All in vivo studies were performed in compliance with the Washington University in St Louis Animal Study Committee's requirements for the care and use of laboratory animals in research. Nude mice (18-22 g) were anesthetized with xylazine/ketamine cocktail via intraperitoneal injection and placed in a supine position. The mice were injected subcutaneously with A549 cells (1×10^6) in the lower back of the mice. Tumor masses were palpable at 5-7 days post implant, which reached 5 mm in 10-15 days. Prior to injection of the probe, the mice were anesthetized as described above. A 29-gauge needle was used to inject the probes into the mouse via the lateral tail vein. The molecular probe (100 μL) was injected via the lateral tail vein at 0.3 μmol per kg of body weight. […] [SEQ ID NO:1] were constituted in a vial, and doses of 0.3 μmol per kg of body weight were injected into the A549 tumor-bearing mice.\nA non-invasive in vivo continuous wave fluorescence imaging apparatus was used to visualize the distribution and preferential tissue uptake of the cypate-peptide molecular beacons in the nude mice (Achilefu (2004) Technol. Cancer Res. Treat. 3:393-409, incorporated herein by reference). Light from two laser diodes of nominal wavelength 780 nm and nominal power of 50 mW was launched into a fiber optic bundle. Two laser diodes were used to produce as much uniform illumination of the whole animal or organ parts as possible. The nominal 50 mW of incident power was reduced to about 44 mW at the output of the fiber optic bundle. A de-focusing lens in position after the bundle expanded the beam such that nearly the whole animal was illuminated. A Photometrics CCD camera (16 bit, 1024×1024 pixel, back illuminated, thermoelectric Peltier cooled with forced air) was used to capture the emitted photons. An interference filter (830 nm) was mounted in front of the CCD camera input lens such that only emitted fluorescent light from the contrast agent was imaged. Real-time acquisition, display and data processing software (WinView/32) was used to obtain the optical image. The samples were dissolved in 20% aqueous DMSO and animals were injected with doses of 0.3 μmol/kg body weight via the lateral tail vein. Injected volumes were 100 μL for each mouse. Data analysis consisted of subtracting (pixel by pixel) the pre-injection image from the post injection images, and displaying the false color results. Integration of the relative fluorescence intensities of tumor vs. surrounding tissues indicated the extent of selective uptake of the contrast agent. At the completion of the study, the mice were euthanized and some organ parts were excised and rinsed with water. The tissues were placed under the CCD camera and the fluorescence emission from each organ was measured after excitation with the 780 nm laser sources. Tissue parts, instead of whole organs, were used to minimize problems associated with depth-dependent non-linear fluorescence emission. A statistical program in the WinView package was used to estimate the mean fluorescence intensity per organ part.\nIn vivo optical imaging studies using the cypate-peptide optical probes were performed and analyzed as described above in Example 1. […]"}}, "note": "Where a SMILES comes first, the peptide text is derived from it."}
{"compound": "CC(C)C[C@@H]1NC(=O)[C@H](CC(=O)O)NC(=O)CNC(=O)[C@H](CCCNC(=N)N)NC(=O)[C@@H](NC(=O)CCN2C(=CC=CC=CC=CC3=[N+](CCC(=O)O)c4ccc5ccccc5c4C3(C)C)C(C)(C)c3c2ccc2ccccc32)CSSC[C@@H](C(N)=O)NC1=O", "note": "[Cypate-cyclo(CRGDLC)-NH2] (HELM PEPTIDE1{[CC1(C)C(/C=C/C=C/C=C/C=C2/N(CCC(=O)[*:2])c3ccc4ccccc4c3C2(C)C)=[N+](CCC(=O)O)c2ccc3ccccc3c21].C.R.G.D.L.C.[am]}$PEPTIDE1,PEPTIDE1,2:R3-7:R3$$$V2.0)", "values": [{"measurement": "cellular internalization", "setting": "A549 and A427 cells", "result": "internalized by the cells much better than some of the other compounds"}]}
{"compound": "CC1(C)C(/C=C/C=C/C=C/C=C2/N(CCC(=O)NCC(=O)N[C@@H](CCCNC(=N)N)C(=O)NCC(=O)N[C@@H](CC(=O)O)C(=O)N[C@@H](CO)C(=O)N3CCC[C@H]3C(=O)N[C@@H](CCCCN)C(=O)O)c3ccc4ccccc4c3C2(C)C)=[N+](CCC(=O)O)c2ccc3ccccc3c21", "note": "[Cyp-RGD, Cypate-GRGDSPK]", "values": [{"measurement": "internalization / fluorescence intensity in cells", "setting": "A549 cells [1]; 1 μM, 4 h, 37° C.", "result": "higher intensity than the linear GRD compound"}, {"measurement": "cytotoxicity (CyQuant), longer treatment", "setting": "A549 cells [2]", "result": "some cytotoxicity"}, {"measurement": "^abεmax", "setting": "[3]", "result": "213,726 cm^−1Mol^−1"}, {"measurement": "^abλmax", "setting": "[3]", "result": 789, "unit": "nm"}, {"measurement": "^emλmax", "setting": "[3]", "result": 811, "unit": "nm"}, {"measurement": "IC50", "setting": "[4]", "result": 328, "unit": "nM"}, {"measurement": "uptake / retention in A549 tumor", "setting": "A549 tumor; 0.3 μmol per kg via lateral tail vein, fluorescence imaging", "result": "preferentially localized"}, {"measurement": "accumulation / retention in nontarget tissues", "setting": "A549 tumor; 24 h post injection", "result": "primarily retained in the liver and the kidneys"}, {"measurement": "tumor uptake compared among the cypate-peptide conjugates", "setting": "A549 tumor; 24 h post injection", "result": "low"}]}
{"compound": "CC(C)[C@@H]1NC(=O)[C@@H](Cc2ccccc2)NC(=O)[C@H](CC(=O)O)NC(=O)CNC(=O)[C@H](CCCNC(=N)N)NC1=O", "note": "[cyclo[RGDfV], reference compound]", "values": [{"measurement": "blocking of cypate-GRD uptake / internalization in A549 cells", "setting": "A549 cells [1]; pretreatment 15 min at 37° C., antibodies 10 μg/ml", "result": "blocked the uptake"}, {"measurement": "displacement of cypate-GRD from A549 tumor", "setting": "A549 tumor; blocking peptide given 24 h postinjection of cypate-GRD", "result": "unable to displace"}, {"measurement": "blocking of Cyp-GRD uptake in the tumor by co-injection", "setting": "A549 tumor; 24 h post injection", "result": "blocked the uptake"}, {"measurement": "blocking of Cyp-GRD uptake in the tumor by co-injection", "setting": "A549 tumor; 24 h post injection, listed as cyclo(RGDfV)", "result": "significantly blocked"}]}
